Test results published in patent publication US11672775B2, “Treprostinil prodrugs” (United Therapeutics Corporation, priority 2016, dated 2023).

How the values were obtained:
[1] = system: Sprague Dawley rats; experiment: Rat intraplantar injection model, von Frey test (Example 9); format: in vivo, Sprague Dawley rat; conditions: 1 μg/mL or 100 μg/mL; 15 and 90 minutes post-injection
Protocol: Male Sprague Dawley rats (n=112) were allocated into 14 groups of 8/group. The study was run in 2 cycles, on consecutive days, 7 groups per cycle. Each cycle was composed of a Saline group, PBS group, which served as the control, and also treprostinil at a dose of 100 μg/mL or 1 μg/mL.
(§1) Animals were administered 0.1 mL of test material by subcutaneous injection into the paw pad (Intraplantar injection) at time zero. Animals were subsequently evaluated for their response to mechanical (von Frey filaments) and thermal stimuli, 15 and 90 minutes post-injection. The von Frey test was conducted prior to the thermal test, which followed immediately within minutes for each animal. In addition, clinical observation scoring of the animal's reaction to injection was conducted. FIG. 16 schematically illustrates the study design.
Mechanical pain sensitivity was tested using the von Frey test, which measures the withdrawal force threshold of the animals. The lower the force applied represents a greater sensitivity to the stimulus. The von Frey test was performed 15 and 90 minutes post-Test Item injection.

[2] = system: Sprague Dawley rats; experiment: Rat intraplantar injection model, von Frey test (Example 10); format: in vivo, Sprague Dawley rat; conditions: 1 μg/mL or 100 μg/mL; 15 and 90 minutes post-injection
Protocol: (§2) Male Sprague Dawley rats (n=56) were allocated into 7 groups of 8 animals per group. […] Each group was compared to the phosphate buffer (50-mM phosphate buffer with 50-mM sodium chloride at pH=7.4) treated group, which served as the control (Group 1).
as §1, with “zero. Then, the animals” for “zero. Animals”, “conducted.” for “conducted. FIG. 16 schematically illustrates the study design.”
Mechanical pain sensitivity was tested using the von Frey test, which measures the withdrawal force threshold of the animals. The lower the force applied represents a greater sensitivity to the stimulus. The von Frey test was performed 15 and 90 minutes post-test item injection.

[3] = system: Sprague Dawley rats; experiment: Rat intraplantar injection model, thermal pain sensitivity (Example 10); format: in vivo, Sprague Dawley rat
Protocol: as §2
as §1, with “zero. Then, the animals” for “zero. Animals”, “conducted.” for “conducted. FIG. 16 schematically illustrates the study design.”
The sensitivity of animals to a thermal pain stimulus was assessed immediately following the von Frey test. The time until withdrawal of the right-injected leg from a heat source was measured, and the lower (faster) the time of response represents a greater sensitivity to the stimulus. The test was performed 15 and 90 minutes post-test item injection.

[4] = system: Sprague Dawley rats; experiment: Rat intraplantar injection model, clinical observation score (Example 10); format: in vivo, Sprague Dawley rat
Protocol: as §2
as §1, with “zero. Then, the animals” for “zero. Animals”, “conducted.” for “conducted. FIG. 16 schematically illustrates the study design.”
A clinical observation score was assigned by assessing for redness, swelling and paw placement.

[5] = system: Sprague Dawley rats; experiment: Cardiovascular assessment by radiotelemetry following subcutaneous injection (Example 12); format: in vivo, Sprague Dawley rat
Protocol: Clinical observations were performed at approximately 6 hours prior to dosing, at the completion of dosing and at approximately 4 hours postdosing.

[6] = system: rat; experiment: Rat intraplantar injection model, mean clinical score (Example 11); conditions: each of 15 min and 90 min
From the text: FIG. 31 presents mean clinical score of cycle 1 (points). Increased/Higher score indicates more observations of adverse events.
FIG. 32 presents mean clinical score of cycle 2 (points). Increased/Higher score indicates more observations of adverse events.
FIGS. 31 and 32 present mean clinical score for Cycles 1 and 2 respectively.

[7] = 0.1 mg/kg SC (first statement as printed)

CCCCC[C@H](O)CC[C@@H]1[C@H]2Cc3cccc(OCC(=O)O)c3C[C@H]2C[C@H]1O [Treprostinil]
von Frey withdrawal force threshold vs PBS-treated group [1]: reduced withdrawal force threshold
von Frey withdrawal force threshold vs phosphate buffer group [2]: reduced withdrawal force threshold
thermal paw withdrawal time vs phosphate buffer treated group ([3]; 1 μg/mL or 100 μg/mL, 15 minutes post-administration): statistically significantly faster paw withdrawal time
sensitivity to heat stimulation vs vehicle (phosphate buffer) group ([3]; 100 μg/mL, 90 minutes post-injection): statistically significantly increased sensitivity
mean clinical score ([4]; 100 μg/mL, each of 15 min and 90 min): non-zero
clinical score vs phosphate buffer treated group (statistically significant increase) ([4]; both doses, 90 minutes): same effect
body temperature change ([5]; 0.000125 mg/kg or 0.00125 mg/kg SC): No significant changes
diastolic blood pressure change ([5]; 0.03 mg/kg SC): marginally lower
mean blood pressure change ([5]; 0.03 mg/kg SC): marginally lower
mean blood pressure, time of nadir ([5]; 0.03 mg/kg SC): 30 min
systolic blood pressure change ([5]; 0.03 mg/kg SC): marginally lower
body temperature changes resolved by ([5]; 0.1 mg/kg SC): approximately 3 hours
diastolic blood pressure lowering persisted through ([5]; 0.1 mg/kg SC): 90 min
diastolic blood pressure, time of nadir ([5]; 0.1 mg/kg SC): 30 min
mean blood pressure lowering persisted through ([5]; 0.1 mg/kg SC): 90 min
mean blood pressure, time of nadir ([5]; 0.1 mg/kg SC): 30 min
systolic blood pressure lowering persisted through ([5]; 0.1 mg/kg SC): 90 min
systolic blood pressure, time of nadir ([5]; 0.1 mg/kg SC): 30 min
body temperature change [5, 7]: Marginally lower
body temperature change persisted through [5, 7]: approximately 3 hours
body temperature changes resolved by ([5]; 0.3 mg/kg SC): ~4 h
diastolic blood pressure lowering persisted through ([5]; 0.3 mg/kg SC): 180 min
diastolic blood pressure, time of nadir ([5]; 0.3 mg/kg SC): 20 min
mean blood pressure lowering persisted through ([5]; 0.3 mg/kg SC): 180 min
mean blood pressure, time of nadir ([5]; 0.3 mg/kg SC): 20 min
systolic blood pressure lowering persisted through ([5]; 0.3 mg/kg SC): 120 min
systolic blood pressure, time of nadir ([5]; 0.3 mg/kg SC): 20 min
pulse pressure change ([5]; 0.3 mg/kg SC, from 20 to 40 minutes postdosing): Marginally lower
body temperature change ([5]; 0.1 and 0.3 mg/kg SC): Significantly lowered
diastolic blood pressure change ([5]; 0.1 and 0.3 mg/kg SC): Significantly lower
diastolic blood pressure, earliest time point of lowering ([5]; 0.1 and 0.3 mg/kg SC): 10 min
mean blood pressure change ([5]; 0.1 and 0.3 mg/kg SC): Significantly lower
mean blood pressure, earliest time point of lowering ([5]; 0.1 and 0.3 mg/kg SC): 10 min
systolic blood pressure change ([5]; 0.1 and 0.3 mg/kg SC): Significantly lower
systolic blood pressure, earliest time point of lowering ([5]; 0.1 and 0.3 mg/kg SC): 10 min
dose resulting in significantly lower body temperature ([5]; single SC injection): ≥ 0.030 mg/kg
dose resulting in significantly lower systolic, diastolic, mean arterial blood pressure ([5]; single SC injection): ≥ 0.1 mg/kg
heart rate change ([5]; single SC injection, all doses): Higher heart rates
time by which heart rate changes resolved / recovered postdosing ([5]; single SC injection, all groups): approximately 5 hours
diastolic blood pressure change ([5]; ≤0.030 mg/kg SC): No meaningful changes
mean blood pressure change ([5]; ≤0.030 mg/kg SC): No meaningful changes
systolic blood pressure change ([5]; ≤0.030 mg/kg SC): No meaningful changes
mean clinical score of cycle 2 ([6]; 1 μg/mL): non-zero
mean clinical score of cycle 1 ([6]; 100 μg/mL): non-zero
